# pIC50: −log10 of the molar value.
# Molecular target: T1, ALK (Homo sapiens, UniProt Q9UM73)
# T1 construct: host or cells: baculovirus expression system
# Experiment: ALK Kinase Assay (ELISA/TRF, PLC-γ substrate)
# Assay type: biochemical
# Conditions: ALK Kinase Inhibition; read-out: ALK Potency
# Method: Briefly, each 96-well plate was coated with […] of 10 μg/mL substrate (phospholipase C-γ) in Tris-buffered saline (TBS). […] The reaction was initiated by adding enzyme (30 ng/ml ALK) and was allowed to proceed at 37° C. for 15 minutes. Detection of the phosphorylated product was performed by adding 100 μl/well of Eu—N1 labeled PT66 antibody (Perkin Elmer # AD0041).
# Data analysis was performed using ActivityBase (IDBS, Guilford, UK). IC50 values were calculated by plotting percent inhibition versus log10 of the concentration of compound and fitting to the nonlinear regression sigmoidal dose-response (variable slope) equation in XLFit (IDBS, Guilford, UK).
# T1 sequence (Q9UM73 19-1620): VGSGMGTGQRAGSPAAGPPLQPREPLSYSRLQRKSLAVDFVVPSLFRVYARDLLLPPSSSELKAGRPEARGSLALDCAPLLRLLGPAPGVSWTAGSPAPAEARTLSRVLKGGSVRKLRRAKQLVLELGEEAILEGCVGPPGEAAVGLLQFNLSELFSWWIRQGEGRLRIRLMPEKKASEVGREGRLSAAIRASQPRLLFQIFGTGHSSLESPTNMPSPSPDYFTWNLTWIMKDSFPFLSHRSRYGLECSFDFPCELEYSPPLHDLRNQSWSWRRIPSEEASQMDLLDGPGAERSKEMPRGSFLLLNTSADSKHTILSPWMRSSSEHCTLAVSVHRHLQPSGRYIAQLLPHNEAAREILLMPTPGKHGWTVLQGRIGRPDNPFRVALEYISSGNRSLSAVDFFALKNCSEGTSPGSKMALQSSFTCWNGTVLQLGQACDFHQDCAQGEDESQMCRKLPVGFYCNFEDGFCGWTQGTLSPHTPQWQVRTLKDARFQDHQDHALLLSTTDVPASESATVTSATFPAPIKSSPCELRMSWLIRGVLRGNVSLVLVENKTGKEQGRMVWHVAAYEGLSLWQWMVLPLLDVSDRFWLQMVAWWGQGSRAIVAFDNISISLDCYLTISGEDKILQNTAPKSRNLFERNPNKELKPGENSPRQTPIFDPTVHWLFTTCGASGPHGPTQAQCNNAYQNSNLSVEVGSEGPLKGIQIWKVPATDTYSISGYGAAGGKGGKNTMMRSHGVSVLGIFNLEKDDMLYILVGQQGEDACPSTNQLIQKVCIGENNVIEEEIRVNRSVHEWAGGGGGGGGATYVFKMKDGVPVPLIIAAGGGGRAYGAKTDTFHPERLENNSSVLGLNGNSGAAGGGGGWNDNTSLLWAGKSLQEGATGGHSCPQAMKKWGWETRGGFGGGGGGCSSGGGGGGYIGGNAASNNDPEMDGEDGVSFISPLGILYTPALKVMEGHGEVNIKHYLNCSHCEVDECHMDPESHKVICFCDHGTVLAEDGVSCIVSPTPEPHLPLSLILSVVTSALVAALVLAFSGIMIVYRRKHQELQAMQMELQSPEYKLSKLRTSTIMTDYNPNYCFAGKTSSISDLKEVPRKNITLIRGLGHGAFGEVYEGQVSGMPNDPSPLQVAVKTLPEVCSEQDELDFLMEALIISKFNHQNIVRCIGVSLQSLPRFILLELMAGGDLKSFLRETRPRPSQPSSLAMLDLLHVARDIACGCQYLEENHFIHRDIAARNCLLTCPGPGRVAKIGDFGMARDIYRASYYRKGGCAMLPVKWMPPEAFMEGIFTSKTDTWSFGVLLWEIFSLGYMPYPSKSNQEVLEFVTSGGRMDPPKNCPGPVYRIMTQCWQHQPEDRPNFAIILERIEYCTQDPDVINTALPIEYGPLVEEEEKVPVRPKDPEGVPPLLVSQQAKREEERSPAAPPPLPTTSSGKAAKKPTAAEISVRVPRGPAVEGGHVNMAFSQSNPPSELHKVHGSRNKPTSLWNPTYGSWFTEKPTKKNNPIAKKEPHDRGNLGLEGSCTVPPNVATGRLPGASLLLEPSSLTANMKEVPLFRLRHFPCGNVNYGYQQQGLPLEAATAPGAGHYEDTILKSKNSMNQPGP
row,pIC50,Structure (SMILES)
1,> 7.00,"CCOc1ccccc1-c1ccc2cnc(Nc3ccc(N4CCC(N5CCOCC5)CC4)cc3OC)nn12 [Example 1447, [7-(2-Ethoxy-phenyl)-pyrrolo[2,1-f][1,2,4]triazin-2-yl]-[2-methoxy-4-(4-morpholin-4-yl-piperidin-1-yl)-phenyl]-amine]"
2,> 7.00,"C[C@H](O)CN1CCN(c2ccc(Nc3ncc4ccc(-c5ccccc5N(C)S(C)(=O)=O)n4n3)cc2F)CC1 [Example 1423, N-[2-(2-{3-Fluoro-4-[4-((S)-2-hydroxy-propyl)-piperazin-1-yl]-phenylamino}-pyrrolo[2,1-f][1,2,4]triazin-7-yl)-phenyl]-N-methyl-methanesulfonamide]"
3,> 7.00,"COc1cc(N2CCCC(N3CCNCC3)C2)ccc1Nc1ncc2ccc(-c3ccccc3OC)n2n1 (stereo not drawn) [Example 1448, [7-(2-Methoxy-phenyl)-pyrrolo[2,1-f][1,2,4]triazin-2-yl]-[2-methoxy-4-(3-piperazin-1-yl-piperidin-1-yl)-phenyl]-amine]"
4,> 7.00,"COc1ccccc1-c1ccc2cnc(Nc3ccc(N4CCN(C[C@H](C)O)CC4)c(F)c3)nn12 [Example 1417, (S)-1-(4-{2-Fluoro-4-[7-(2-methoxy-phenyl)-pyrrolo[2,1-f][1,2,4]triazin-2-ylamino]-phenyl}-piperazin-1-yl)-propan-2-ol]"
5,> 7.00,"COc1ccccc1-c1ccc2cnc(Nc3ccc(N4CCN(C)CC4)c(F)c3)nn12 [Example 90, [3-Fluoro-4-(4-methyl-piperazin-1-yl)-phenyl]-[7-(2-methoxy-phenyl)-pyrrolo[2,1-f][1,2,4]triazin-2-yl]-amine]"

# Same assay, conditions: ALK kinase inhibition, 1 μM ATP; read-out: ALK Potency
row,pIC50,Structure (SMILES)
1,> 7.00,"COc1cc2c(cc1Nc1ncc3ccc(-c4ccccc4OC)n3n1)CCCC(N1CCOCC1)C2 (stereo not drawn) [Example 992, (3-Methoxy-6-morpholin-4-yl-6,7,8,9-tetrahydro-5H-benzocyclohepten-2-yl)-[7-(2-methoxy-phenyl)-pyrrolo[2,1-f][1,2,4]triazin-2-yl]-amine]"
2,> 7.00,"COc1cc(N2CCN(C[C@H](O)CO)CC2)ccc1Nc1ncc2ccc(-c3cc(Cl)ccc3OC)n2n1 [Example 759, (S)-3-(4-{4-[7-(5-Chloro-2-methoxy-phenyl)-pyrrolo[2,1-f][1,2,4]triazin-2-ylamino]-3-methoxy-phenyl}-piperazin-1-yl)-propane-1,2-diol]"
3,> 7.00,"COc1ccc(C2CCN(C)CC2)cc1Nc1ncc2ccc(-c3ccccc3OC)n2n1 [Example 770, [2-Methoxy-5-(1-methyl-piperidin-4-yl)-phenyl]-[7-(2-methoxy-phenyl)-pyrrolo[2,1-f][1,2,4]triazin-2-yl]-amine]"

# Molecular target: T2, JAK2 (Homo sapiens, UniProt O60674)
# T2 construct: host or cells: baculovirus expression system
# Experiment: Recombinant Human JAK2 Kinase Assay (TRF)
# Assay type: biochemical
# Conditions: JAK2 Kinase Inhibition; read-out: JAK2 Potency
# Method: Compounds were tested for their ability to inhibit the kinase activity of baculovirus-expressed JAK2 using the TRF detection system. […] The plates were coated first with 100 μL/well of 10 μg/mL Neutravidin (Pierce #31000, Rockford, Ill.) in TBS at 37° C. for 2 hours, followed by 100 μL/well of 1 μg/mL 15-mer peptide substrate (biotinyl-amino-hexanoyl-[…]-amide, Infinity Biotech Research and Resource, Aston, Pa.) at 37° C. for another hour. The JAK2 assay mixture (total volume=100 μL/well) consisting of 20 mM HEPES (pH 7.2), 0.2 μM ATP, 1 mM MnCl2, 0.1% BSA, and test compound (diluted in DMSO; 2.5% DMSO final in assay) was then added to the assay plate. Enzyme (15 ng/ml JAK2) was added and the reaction was allowed to proceed at room temperature for 20 minutes. Detection of the phosphorylated product was performed by adding 100 μL/well of Eu—N1 labeled PY100 antibody (PerkinElmer Life Sciences #AD0041, Boston, Mass.).
# T2 sequence (O60674 whole entry): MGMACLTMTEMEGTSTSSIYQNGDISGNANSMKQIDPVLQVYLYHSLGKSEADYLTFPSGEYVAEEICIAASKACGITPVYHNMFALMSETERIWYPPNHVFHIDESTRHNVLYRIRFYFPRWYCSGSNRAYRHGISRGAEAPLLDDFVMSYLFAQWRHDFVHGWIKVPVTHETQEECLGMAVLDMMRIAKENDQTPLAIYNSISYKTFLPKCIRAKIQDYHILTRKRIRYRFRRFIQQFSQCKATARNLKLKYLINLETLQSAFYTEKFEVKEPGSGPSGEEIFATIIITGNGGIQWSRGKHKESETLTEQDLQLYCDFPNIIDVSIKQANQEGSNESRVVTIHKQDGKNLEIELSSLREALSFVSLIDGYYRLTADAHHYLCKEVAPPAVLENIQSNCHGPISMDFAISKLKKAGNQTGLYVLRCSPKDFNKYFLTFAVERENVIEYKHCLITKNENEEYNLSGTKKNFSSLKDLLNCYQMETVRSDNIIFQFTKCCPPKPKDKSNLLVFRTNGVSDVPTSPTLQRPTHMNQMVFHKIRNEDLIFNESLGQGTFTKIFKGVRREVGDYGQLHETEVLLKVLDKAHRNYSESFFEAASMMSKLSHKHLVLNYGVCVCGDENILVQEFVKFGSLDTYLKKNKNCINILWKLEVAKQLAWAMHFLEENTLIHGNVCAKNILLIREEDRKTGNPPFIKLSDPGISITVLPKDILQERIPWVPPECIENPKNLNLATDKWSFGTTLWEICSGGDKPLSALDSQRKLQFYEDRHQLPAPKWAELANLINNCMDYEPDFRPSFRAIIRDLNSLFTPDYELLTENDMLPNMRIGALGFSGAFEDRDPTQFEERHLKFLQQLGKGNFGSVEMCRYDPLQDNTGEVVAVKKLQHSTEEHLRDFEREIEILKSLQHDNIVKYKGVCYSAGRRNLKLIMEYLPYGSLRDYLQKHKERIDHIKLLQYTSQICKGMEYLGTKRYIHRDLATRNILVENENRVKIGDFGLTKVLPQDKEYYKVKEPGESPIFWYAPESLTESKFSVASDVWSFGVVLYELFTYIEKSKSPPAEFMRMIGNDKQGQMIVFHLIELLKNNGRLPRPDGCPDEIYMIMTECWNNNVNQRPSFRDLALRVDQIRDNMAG
row,pIC50,Structure (SMILES)
1,> 7.00,"COc1ccc(Cl)cc1-c1ccc2cnc(Nc3ccc(C(C)C)c(NC(C)=O)c3)nn12 [Example 302, N-{5-[7-(5-Chloro-2-methoxy-phenyl)-pyrrolo[2,1-f][1,2,4]triazin-2-ylamino]-2-isopropyl-phenyl}-acetamide]"

# Same assay, conditions: JAK2 kinase inhibition, 0.2 μM ATP; read-out: JAK2 Potency
row,pIC50,Structure (SMILES)
1,> 7.00,"COc1cc([C@@H]2CCN(CCO)C[C@H]2O)ccc1Nc1ncc2ccc(-c3ccccc3OC)n2n1 (racemic) [Example 856, (±)-(3S,4S)-1-(2-Hydroxy-ethyl)-4-{3-methoxy-4-[7-(2-methoxy-phenyl)-pyrrolo[2,1-f][1,2,4]triazin-2-ylamino]-phenyl}-piperidin-3-ol]"
2,> 7.00,"COc1cc([C@@]2(O)CCNC[C@@H]2O)ccc1Nc1ncc2ccc(-c3ccccc3OC)n2n1 (racemic) [Example 832, (±)-(3S,4S)-4-{3-Methoxy-4-[7-(2-methoxy-phenyl)-pyrrolo[2,1-f][1,2,4]triazin-2-ylamino]-phenyl}-piperidine-3,4-diol]"
3,6.00 to 7.00,"COc1cc([C@@H]2CCNC[C@H]2O)ccc1Nc1ncc2ccc(-c3ccccc3OC)n2n1 (racemic) [Example 855, (±)-(3S,4S)-4-{3-Methoxy-4-[7-(2-methoxy-phenyl)-pyrrolo[2,1-f][1,2,4]triazin-2-ylamino]-phenyl}-piperidin-3-ol]"

# From patent US8471005B2 (Cephalon, Inc., priority 2008, dated 2013)
